# Publication PMC4139342, “Pharmacokinetics-Pharmacodynamics Analysis of Bicyclic 4-Nitroimidazole Analogs in a Murine Model of Tuberculosis” (PLoS ONE, 2014)
# Where two headings read alike, the source gives them in different places.
# Tests used:
# physchem [1] = test: physchem
# [2] = In vivo plasma PK after intravenous dosing; settings: mice; for half-life: female, CD-1, mouse, plasma, iv, T1/2 (i.v)
# in vivo [3] = settings: female, CD-1, mouse, po
# [4] = not given; remark: listed apart in the source
# in vivo [5] = settings: female, CD-1, mouse, po; remark: listed apart in the source
# [6] = In vivo plasma PK after oral dosing in CM-2 formulation; settings: for half-life: female, CD-1, mouse, plasma, po
# [7] = test system: M. tuberculosis (Mtb) (H37Rv, ATCC 27294); test: microbe, parasite or virus in culture; assay type: cell-based; settings: Mycobacterium tuberculosis
# [8] = female, CD-1, mouse, in vivo, po
# in vivo [9] = settings: female, CD-1, mouse, iv; for clearance: i.v. CL
# in vitro [10] = settings: human, Caco-2
# Mtb H37Rv = test: In vivo mouse efficacy, established murine TB model; parameters: species or system Balb/c mice; settings: for Efficacy compared with PA-824, in words: significance at P<0.05; for Dose dependence of efficacy, in words: 25 versus 100 mg/kg oral daily for 4 weeks; for log reduction at 25 mg/kg / log reduction at 100 mg/kg: Mycobacterium tuberculosis, H37RV, po, 672 h, read-out: Mean log lung CFU reduction ± SEM compared to untreated controls
# Procedure: In vivo mouse efficacy studies were determined after intranasal infection of Balb/c mice with 10^3 cfu Mtb H37Rv. Treatment was initiated 4 weeks after infection. Compounds were orally administered in CM-2 formulation for 4 weeks daily. Bacterial loads were determined at 2 and 4 weeks post treatment. Statistical analysis was done by a one-way analysis of variance, followed by a multiple comparison analysis of variance by a one-way Tukey test (GraphPad Prism, version 5.02, San Diago, California USA, www.graphpad.com). Differences were considered statistically significant at the 95% level of confidence.
# [11] = In vivo lung PK after oral dosing; settings: female, CD-1, mouse
# physchem [12] = settings: pH 6.8, aqueous buffer, thermodynamic from solid
# [13] = test system: CaCo-2 colon carcinoma cell lines
# [14] = Cytotoxicity against THP1 macrophage cell lines; assay type: cell-based; settings: human
# in vitro [15] = settings: mouse, plasma
# [16] = parameters: method as in PMID 19528280; settings: healthy subjects, oral daily doses for 7 days; cited from earlier work
# [17] = parameters: method as in PMID 16870750; settings: mice dosed for 2 months; cited from earlier work
# [18] = female, CD-1, mouse, in vivo, po, 25 mg/kg
# Mtb = settings: murine model, cited from earlier work
# [19] = lungs; cited from earlier work
# [20] = 25 mg/kg oral daily for 4 weeks, 5 animals
# [21] = 100 mg/kg oral daily for 4 weeks, 5 animals
# [22] = 25 mg/kg oral daily for 4 weeks, mean value from three independent experiments (n = 15)
# [23] = mouse plasma, single oral dose 25 mg/kg, CM-2
smiles,measurement,setting,value
O=[N+]([O-])c1cn2c(n1)OC[C@@H](NCc1ccc(OC(F)(F)F)c(O)c1)C2 [NI-147],logP,physchem [1],2.4
same,half-life,"[2]; 5 mg/kg, i.v. dosing at 5 mg/kg",0.3 h
same,Solubility pH 6.8,,56.0 µg/mL
same,Tmax,in vivo [3]; 25 mg/kg,0.1 h
same,PAMPA %FA,[4],43%
same,PAMPA Log Pe,[4],–5.2 cm/sec
same,AUC,in vivo [5]; 25 mg/kg,20 ng·h/mL
same,Cmax,in vivo [5]; 25 mg/kg,40 ng/mL
same,Tmax,in vivo [5]; 25 mg/kg,0.1 h
same,bioavailability,in vivo [5]; 25 mg/kg,0.3%
same,half-life,[6]; 25 mg/kg,0.2 h
same,MIC99,[7],0.03 µg/mL
same,Lung AUC24,[8]; 25 mg/kg,2.6 µg·h/g
same,Lung Cmax,[8]; 25 mg/kg,0.5 µg/g
same,Vd,in vivo [9]; 5 mg/kg,0.4 L/kg
same,clearance,in vivo [9]; 5 mg/kg,70.8 mL/min/kg
O=C(CO[C@@H]1COc2nc([N+](=O)[O-])cn2C1)N1CCN(c2ccc(C(F)(F)F)cn2)CC1 [NI-644],logP,physchem [1],2.6
same,half-life,"[2]; 10 mg/kg, i.v. dosing at 10 mg/kg",< 1 h
same,T1/2 (i.v),"[2]; i.v. dosing at 10 mg/kg, 10 mg/kg",0.9 h
same,Papp A→B,in vitro [10],2.8 ×10⁻⁶ cm/s
same,Papp B→A,in vitro [10],13.7 ×10⁻⁶ cm/s
same,efflux ratio,in vitro [10],4.8
same,Mean log lung CFU ± SEM,Mtb H37Rv; [20],6.18±0.03 log CFU
same,"Efficacy compared with PA-824, in words",Mtb H37Rv; 25 mg/kg oral daily for 4 weeks,significantly (P<0.05) less efficacious than PA-824
same,Mean log lung CFU ± SEM,Mtb H37Rv; [21],6.09±0.07 log CFU
same,"Efficacy compared with PA-824, in words",Mtb H37Rv; 100 mg/kg oral daily for 4 weeks,significantly (P<0.05) less efficacious than PA-824
same,"Dose dependence of efficacy, in words",Mtb H37Rv,no dose-dependent increase in bactericidal activity
same,log reduction at 25 mg/kg,Mtb H37Rv; [20],0.48 to 0.89
same,log reduction at 100 mg/kg,Mtb H37Rv; [21],0.57 ± 0.07
same,Tmax,in vivo [3]; 50 mg/kg,1 h
same,Kp,"in vivo [3]; 50 mg/kg, Lung to Plasma ratio AUC24",0.4
same,Kp,"in vivo [3]; 50 mg/kg, Lung to Plasma ratio Cmax",0.5
same,half-life,[11]; 50 mg/kg,2.9 h
same,PAMPA %FA,[4],83%
same,PAMPA Log Pe,[4],–4.9 cm/sec
same,AUC,in vivo [5]; 50 mg/kg,89500 ng·h/mL
same,Cmax,in vivo [5]; 50 mg/kg,16200 ng/mL
same,Tmax,in vivo [5]; 50 mg/kg,1 h
same,bioavailability,in vivo [5]; 50 mg/kg,100%
same,solubility,physchem [12],14 µg/mL
same,half-life,[6]; 50 mg/kg,3.6 h
same,MIC99,[7],0.09 µg/mL
same,Lung AUC24,[8]; 50 mg/kg,38.1 µg·h/g
same,Lung Cmax,[8]; 50 mg/kg,7.5 µg/g
same,"Permeability in the Caco-2 assay, in words",[13],moderate permeability
same,CC50,[14],> 10 µg/mL
same,fraction unbound,in vitro [15],0.1
same,Vd,in vivo [9]; 10 mg/kg,0.7 L/kg
same,clearance,in vivo [9]; 10 mg/kg,9.5 mL/min/kg
"O=[N+]([O-])c1cn2c(n1)OC[C@@H](OCc1ccc(OC(F)(F)F)cc1)C2 [PA-824, (6S)-2-nitro-6-{[4-(trifluoromethoxy)benzyl]oxy}-6,7-dihydro-5H-imidazo[2,1-b][1, 3]oxazine, reference compound]",Tolerability,[16],well tolerated
same,logP,physchem [1],2.75
same,PAMPA Log Pe,PAMPA permeability; effective permeability,–4.2 cm/sec
same,PAMPA %FA,PAMPA permeability; fraction absorbed,99%
same,Plasma accumulation,[17],absence of plasma accumulation
same,T1/2 (i.v),[2]; i.v. dosing at 10 mg/kg,1.6 h
same,i.v. CL,[2]; i.v. dosing at 10 mg/kg,12.1 mL/min/kg
same,i.v. Vss,[2]; i.v. dosing at 10 mg/kg,1.6 L/kg
same,Papp A→B,in vitro [10],27.6 ×10⁻⁶ cm/s
same,Papp B→A,in vitro [10],20.4 ×10⁻⁶ cm/s
same,efflux ratio,in vitro [10],0.8
same,Mean log lung CFU reduction ± SEM compared to untreated controls,Mtb H37Rv; [22],1.48 ± 0.09 log CFU
same,"Dose dependence of efficacy, in words",Mtb H37Rv,dose dependent increase in efficacy
same,log reduction at 25 mg/kg,Mtb H37Rv; [20],1.23 to 1.56
same,log reduction at 25 mg/kg,Mtb H37Rv; [22],1.48 ± 0.09
same,log reduction at 100 mg/kg,Mtb H37Rv; [21],1.95 ± 0.13
same,log reduction at 100 mg/kg,"Mtb H37Rv; 100 mg/kg oral daily for 4 weeks, mean value from three independent experiments (n = 15)",2.3 ± 0.08
same,Plasma free fCmax,[18],0.6 µg/mL
same,Tmax,in vivo [3]; 25 mg/kg,0.3 h
same,Kp,"in vivo [3]; 25 mg/kg, Lung to Plasma ratio AUC24",2.7
same,Kp,"in vivo [3]; 25 mg/kg, Lung to Plasma ratio Cmax",3
same,fT>MIC in plasma required,Mtb; for 1-log10 kill,48%
same,fT>MIC in plasma required,Mtb; for 1.59 log10 kill,77%
same,fT>MIC in plasma required,Mtb; for bacteriostatic effect,22%
same,half-life,[11]; 25 mg/kg,4.8 h
same,AUC,in vivo [5]; 25 mg/kg,50900 ng·h/mL
same,solubility,physchem [12],13 µg/mL
same,"F, oral bioavailability","[6]; mice, p.o. 25 mg/kg versus i.v. 5 mg/kg (PA-824: i.v. 10 mg/kg)",100%
same,T1/2 (p.o.),[6]; [23],2.7
same,p.o. Tmax,[6]; [23],2 h
same,p.o. Cmax,"[6]; mouse plasma, total concentration, single oral dose 25 mg/kg, CM-2",6000 ng/mL
same,MIC99,[7],0.3 µg/mL
same,Lung AUC24,[8]; 25 mg/kg,139.9 µg·h/g
same,Lung Cmax,[8]; 25 mg/kg,17.8 µg/g
same,CC50,"[14]; THP1 macrophage cell line, THP1 macrophage cell lines, read-out: Cytotoxicity CC50",> 10 µg/mL
same,fraction unbound,in vitro [15],0.1
COc1nc2ccc(Br)cc2cc1[C@@H](c1ccccc1)[C@@](O)(CCN(C)C)c1cccc2ccccc12 [TMC207],AUC L/P ratio,[19],22
